#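 Results reflect a 48-hour exposure of cells in 96-well plates to compound at five concentrations. TGI marks complete inhibition of growth.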
# How the values were obtained:
# Test in all cases: growth of human tumour cells (NCI), 48 h
# 786-0 renal = system: 786-0 renal
# A498 renal = system: A498 renal
# A549 NSCLC = system: A549 NSCLC
# ACHN renal = system: ACHN renal
# BT-549 breast = system: BT-549 breast
# CAKI-1 renal = system: CAKI-1 renal
# CCRF-CEM leukemia = system: CCRF-CEM leukemia
# COLO 205 colon = system: COLO 205 colon
# DU-145 prostate = system: DU-145 prostate
# EKVX NSCLC = system: EKVX NSCLC
# HCC-2998 colon = system: HCC-2998 colon
# HCT-116 colon = system: HCT-116 colon
# HCT-15 colon = system: HCT-15 colon
# HL-60(TB) leukemia = system: HL-60(TB) leukemia
# HOP-62 NSCLC = system: HOP-62 NSCLC
# HOP-92 NSCLC = system: HOP-92 NSCLC
# HS 578T breast = system: HS 578T breast
# HT29 colon = system: HT29 colon
# IGROV1 ovarian = system: IGROV1 ovarian
# K-562 leukemia = system: K-562 leukemia
# KM12 colon = system: KM12 colon
# LOX IMVI melanoma = system: LOX IMVI melanoma
# M14 melanoma = system: M14 melanoma
# MALME-3M melanoma = system: MALME-3M melanoma
# MCF7 breast = system: MCF7 breast
# MDA-MB-231 breast = system: MDA-MB-231 breast
# MDA-MB-435 = system: MDA-MB-435
# MDA-N = system: MDA-N
# MOLT-4 leukemia = system: MOLT-4 leukemia
# NCI-H226 lung = system: NCI-H226 lung
# NCI-H23 lung = system: NCI-H23 lung
# NCI-H460 lung = system: NCI-H460 lung
# NCI-H522 lung = system: NCI-H522 lung
# NCI/ADR-RES ovarian = system: NCI/ADR-RES ovarian
# OVCAR-3 ovarian = system: OVCAR-3 ovarian
# OVCAR-4 ovarian = system: OVCAR-4 ovarian
# OVCAR-5 ovarian = system: OVCAR-5 ovarian
# OVCAR-8 ovarian = system: OVCAR-8 ovarian
# PC-3 prostate = system: PC-3 prostate
# RPMI-8226 leukemia = system: RPMI-8226 leukemia
# RXF 393 renal = system: RXF 393 renal
# SF-268 CNS = system: SF-268 CNS
# SF-295 CNS = system: SF-295 CNS
# SF-539 CNS = system: SF-539 CNS
# SK-MEL-2 melanoma = system: SK-MEL-2 melanoma
# SK-MEL-28 melanoma = system: SK-MEL-28 melanoma
# SK-MEL-5 melanoma = system: SK-MEL-5 melanoma
# SK-OV-3 ovarian = system: SK-OV-3 ovarian
# SN12C renal = system: SN12C renal
# SNB-19 CNS = system: SNB-19 CNS
# SNB-75 CNS = system: SNB-75 CNS
# SR leukemia = system: SR leukemia
# SW-620 colon = system: SW-620 colon
# T-47D breast = system: T-47D breast
# TK-10 renal = system: TK-10 renal
# U251 CNS = system: U251 CNS
# UACC-257 melanoma = system: UACC-257 melanoma
# UACC-62 melanoma = system: UACC-62 melanoma
# UO-31 renal = system: UO-31 renal
smiles,measurement,setting,value
CC(=O)Nc1ccc(S(=O)(=O)/N=C2\C=CC(=O)c3ccccc32)cc1,TGI,786-0 renal,26.4 µM
same,TGI,A498 renal,21.2 µM
same,TGI,A549 NSCLC,29.7 µM
same,TGI,ACHN renal,16.4 µM
same,TGI,BT-549 breast,25.3 µM
same,TGI,CAKI-1 renal,35.7 µM
same,TGI,CCRF-CEM leukemia,27.7 µM
same,TGI,COLO 205 colon,26.9 µM
same,TGI,DU-145 prostate,> 57.2 µM
same,TGI,EKVX NSCLC,22 µM
same,TGI,HCC-2998 colon,10.7 µM
same,TGI,HCT-116 colon,22.8 µM
same,TGI,HCT-15 colon,16.1 µM
same,TGI,HL-60(TB) leukemia,11.2 µM
same,TGI,HOP-62 NSCLC,22.8 µM
same,TGI,HOP-92 NSCLC,21.7 µM
same,TGI,HS 578T breast,26.1 µM
same,TGI,HT29 colon,33.7 µM
same,TGI,IGROV1 ovarian,10.7 µM
same,TGI,K-562 leukemia,9.13 µM
same,TGI,KM12 colon,40.5 µM
same,TGI,LOX IMVI melanoma,15.2 µM
same,TGI,M14 melanoma,11.1 µM
same,TGI,MALME-3M melanoma,9.66 µM
same,TGI,MCF7 breast,12.2 µM
same,TGI,MDA-MB-231 breast,10.7 µM
same,TGI,MDA-MB-435,3.36 µM
same,TGI,MDA-N,3.59 µM
same,TGI,MOLT-4 leukemia,1.25 µM
same,TGI,NCI-H226 lung,18.1 µM
same,TGI,NCI-H23 lung,13.3 µM
same,TGI,NCI-H460 lung,28.5 µM
same,TGI,NCI-H522 lung,29 µM
same,TGI,NCI/ADR-RES ovarian,22.9 µM
same,TGI,OVCAR-3 ovarian,10.3 µM
same,TGI,OVCAR-4 ovarian,8.6 µM
same,TGI,OVCAR-5 ovarian,20.6 µM
same,TGI,OVCAR-8 ovarian,9.13 µM
same,TGI,PC-3 prostate,15.4 µM
same,TGI,RPMI-8226 leukemia,25.9 µM
same,TGI,RXF 393 renal,15.6 µM
same,TGI,SF-268 CNS,17.2 µM
same,TGI,SF-295 CNS,15.1 µM
same,TGI,SF-539 CNS,15.6 µM
same,TGI,SK-MEL-2 melanoma,32.1 µM
same,TGI,SK-MEL-28 melanoma,24.4 µM
same,TGI,SK-MEL-5 melanoma,8.7 µM
same,TGI,SK-OV-3 ovarian,33.8 µM
same,TGI,SN12C renal,11.9 µM
same,TGI,SNB-19 CNS,28.3 µM
same,TGI,SNB-75 CNS,14.1 µM
same,TGI,SR leukemia,11.8 µM
same,TGI,SW-620 colon,47.6 µM
same,TGI,T-47D breast,> 83 µM
same,TGI,TK-10 renal,36.9 µM
same,TGI,U251 CNS,14.2 µM
same,TGI,UACC-257 melanoma,12.4 µM
same,TGI,UACC-62 melanoma,12.2 µM
same,TGI,UO-31 renal,20 µM
N=C(N)CCNC(=O)C1CCC(N)=N1 (stereo not drawn),TGI,786-0 renal,> 95.7 µM
same,TGI,A498 renal,85.9 µM
same,TGI,A549 NSCLC,> 61.2 µM
same,TGI,ACHN renal,> 100 µM
same,TGI,BT-549 breast,> 100 µM
same,TGI,CAKI-1 renal,> 100 µM
same,TGI,CCRF-CEM leukemia,> 80.5 µM
same,TGI,COLO 205 colon,> 59 µM
same,TGI,DU-145 prostate,> 65.6 µM
same,TGI,EKVX NSCLC,> 89.7 µM
same,TGI,HCC-2998 colon,> 36.2 µM
same,TGI,HCT-116 colon,> 91 µM
same,TGI,HCT-15 colon,> 100 µM
same,TGI,HL-60(TB) leukemia,> 87.4 µM
same,TGI,HOP-62 NSCLC,> 48.2 µM
same,TGI,HOP-92 NSCLC,> 67.8 µM
same,TGI,HS 578T breast,65.5 µM
same,TGI,HT29 colon,> 84.5 µM
same,TGI,IGROV1 ovarian,> 100 µM
same,TGI,K-562 leukemia,> 100 µM
same,TGI,KM12 colon,> 100 µM
same,TGI,LOX IMVI melanoma,> 100 µM
same,TGI,M14 melanoma,98.1 µM
same,TGI,MALME-3M melanoma,> 61.6 µM
same,TGI,MCF7 breast,> 100 µM
same,TGI,MDA-MB-231 breast,> 79.3 µM
same,TGI,MDA-MB-435,> 100 µM
same,TGI,MDA-N,> 100 µM
same,TGI,MOLT-4 leukemia,> 78.8 µM
same,TGI,NCI-H226 lung,> 63.8 µM
same,TGI,NCI-H23 lung,> 93.3 µM
same,TGI,NCI-H460 lung,> 82.1 µM
same,TGI,NCI-H522 lung,> 92.9 µM
same,TGI,NCI/ADR-RES ovarian,> 100 µM
same,TGI,OVCAR-3 ovarian,> 41.9 µM
same,TGI,OVCAR-4 ovarian,81.3 µM
same,TGI,OVCAR-5 ovarian,> 96.6 µM
same,TGI,OVCAR-8 ovarian,> 100 µM
same,TGI,PC-3 prostate,> 64.6 µM
same,TGI,RPMI-8226 leukemia,> 100 µM
same,TGI,RXF 393 renal,> 94.4 µM
same,TGI,SF-268 CNS,> 93 µM
same,TGI,SF-295 CNS,> 86.2 µM
same,TGI,SF-539 CNS,> 43.2 µM
same,TGI,SK-MEL-2 melanoma,> 78.7 µM
same,TGI,SK-MEL-28 melanoma,> 100 µM
same,TGI,SK-MEL-5 melanoma,> 61.9 µM
same,TGI,SK-OV-3 ovarian,> 69.3 µM
same,TGI,SN12C renal,68.3 µM
same,TGI,SNB-19 CNS,> 100 µM
same,TGI,SNB-75 CNS,60.4 µM
same,TGI,SR leukemia,> 100 µM
same,TGI,SW-620 colon,> 100 µM
same,TGI,T-47D breast,> 59.7 µM
same,TGI,TK-10 renal,> 90.4 µM
same,TGI,U251 CNS,> 100 µM
same,TGI,UACC-257 melanoma,> 81.1 µM
same,TGI,UACC-62 melanoma,> 100 µM
same,TGI,UO-31 renal,> 80.1 µM
